Test results published in ChEMBL document CHEMBL3885861, “Open TG-GATES”.

Species: Rattus norvegicus
Test: Open TG-GATES - Regimen: Single
Format: toxicity, organism-based, Sprague-Dawley
Set-up: regimen Single, gender Male, age 6 weeks
Conditions: in vivo, po, route gavage; for APTT / Bas / Eos / Fbg / Hb / Ht / Lym / MCH / MCHC / MCV / Mono / Neu / PT / Plat / RBC / Ret / WBC: tissue Blood; for KIDNEY_L / KIDNEY_R / KIDNEY_TOTAL: tissue Kidney; for LIVER: tissue Liver; for A/G / ALP / ALT / AST / BUN / CRE / Ca / Cl / DBIL / GLC / IP / K / LDH / Na / PL / RALB / TBIL / TC / TG / TP / gamma-GTP: tissue Plasma
[1] = 30 mg/kg, 3 h, dose level Middle
[2] = 30 mg/kg, 6 h, dose level Middle
[3] = 30 mg/kg, 9 h, dose level Middle
[4] = 30 mg/kg, 24 h, dose level Middle
[5] = 100 mg/kg, 3 h, dose level High
[6] = 100 mg/kg, 6 h, dose level High
[7] = 100 mg/kg, 9 h, dose level High
[8] = 100 mg/kg, 24 h, dose level High

CN(C)CCN(Cc1cccs1)c1ccccn1
TERMINAL_BW [1]: 182 g
APTT [1]: 21.9 s
Bas [1]: 0%
Eos [1]: 0.6%
Fbg [1]: 308.2 mg/dL
Hb [1]: 13 g/dL
Ht [1]: 39.6%
Lym [1]: 80.2%
MCH [1]: 21.6 pg
MCHC [1]: 32.8%
MCV [1]: 65.9 fL
Mono [1]: 2.2%
Neu [1]: 15.8%
PT [1]: 16.1 s
Plat [1]: 115.9 x10_4/uL
RBC [1]: 603 x10_4/ul
Ret [1]: 7.3%
WBC [1]: 81.5 x10_2/uL
KIDNEY_L [1]: 0.8 g
KIDNEY_R [1]: 0.9 g
KIDNEY_TOTAL [1]: 1.7 g
LIVER [1]: 8.3 g
A/G [1]: 1.3
ALP [1]: 1624.8 IU/L
ALT [1]: 41.4 IU/L
AST [1]: 73.6 IU/L
BUN [1]: 13 mg/dL
CRE [1]: 0.2 mg/dL
Ca [1]: 10.5 mg/dL
Cl [1]: 107.6 meq/L
DBIL [1]: 0 mg/dL
GLC [1]: 179 mg/dL
IP [1]: 8.4 mg/dL
K [1]: 4.4 meq/L
LDH [1]: 201.8 IU/L
Na [1]: 142.8 meq/L
PL [1]: 140.4 mg/dL
RALB [1]: 3 g/dL
TBIL [1]: 0.016 mg/dL
TC [1]: 75.4 mg/dL
TG [1]: 53.4 mg/dL
TP [1]: 5.4 g/dL
gamma-GTP [1]: 1 IU/L
TERMINAL_BW [2]: 186.2 g
APTT [2]: 21.5 s
Bas [2]: 0%
Eos [2]: 0.6%
Fbg [2]: 292.6 mg/dL
Hb [2]: 12.6 g/dL
Ht [2]: 38.7%
Lym [2]: 74.6%
MCH [2]: 21 pg
MCHC [2]: 32.7%
MCV [2]: 64 fL
Mono [2]: 2%
Neu [2]: 22%
PT [2]: 16.9 s
Plat [2]: 117.9 x10_4/uL
RBC [2]: 604 x10_4/ul
Ret [2]: 7.6%
WBC [2]: 62.8 x10_2/uL
KIDNEY_L [2]: 0.8 g
KIDNEY_R [2]: 0.9 g
KIDNEY_TOTAL [2]: 1.7 g
LIVER [2]: 8 g
A/G [2]: 1.2
ALP [2]: 1536.2 IU/L
ALT [2]: 34.2 IU/L
AST [2]: 71.2 IU/L
BUN [2]: 12.8 mg/dL
CRE [2]: 0.1 mg/dL
Ca [2]: 10.5 mg/dL
Cl [2]: 106.2 meq/L
DBIL [2]: 0 mg/dL
GLC [2]: 173 mg/dL
IP [2]: 9.2 mg/dL
K [2]: 4.5 meq/L
LDH [2]: 178 IU/L
Na [2]: 141.6 meq/L
PL [2]: 142.4 mg/dL
RALB [2]: 2.8 g/dL
TBIL [2]: 0.024 mg/dL
TC [2]: 82.6 mg/dL
TG [2]: 53 mg/dL
TP [2]: 5.3 g/dL
gamma-GTP [2]: 1 IU/L
TERMINAL_BW [3]: 183.7 g
APTT [3]: 20.6 s
Bas [3]: 0%
Eos [3]: 0.6%
Fbg [3]: 290.8 mg/dL
Hb [3]: 12.9 g/dL
Ht [3]: 38.4%
Lym [3]: 74%
MCH [3]: 21.1 pg
MCHC [3]: 33.5%
MCV [3]: 63.1 fL
Mono [3]: 2.2%
Neu [3]: 22.2%
PT [3]: 15.5 s
Plat [3]: 124.7 x10_4/uL
RBC [3]: 608.8 x10_4/ul
Ret [3]: 7.7%
WBC [3]: 66.5 x10_2/uL
KIDNEY_L [3]: 0.8 g
KIDNEY_R [3]: 0.8 g
KIDNEY_TOTAL [3]: 1.7 g
LIVER [3]: 7.5 g
A/G [3]: 1.2
ALP [3]: 1582.8 IU/L
ALT [3]: 35.8 IU/L
AST [3]: 69.8 IU/L
BUN [3]: 11.2 mg/dL
CRE [3]: 0.1 mg/dL
Ca [3]: 10.3 mg/dL
Cl [3]: 106.8 meq/L
DBIL [3]: 0.002 mg/dL
GLC [3]: 166.6 mg/dL
IP [3]: 9.9 mg/dL
K [3]: 4.5 meq/L
LDH [3]: 205.6 IU/L
Na [3]: 141.8 meq/L
PL [3]: 131 mg/dL
RALB [3]: 3 g/dL
TBIL [3]: 0.022 mg/dL
TC [3]: 77.4 mg/dL
TG [3]: 42.2 mg/dL
TP [3]: 5.5 g/dL
gamma-GTP [3]: 1 IU/L
TERMINAL_BW [4]: 198 g
APTT [4]: 20 s
Bas [4]: 0%
Eos [4]: 0.8%
Fbg [4]: 308 mg/dL
Hb [4]: 12.9 g/dL
Ht [4]: 38.8%
Lym [4]: 84.4%
MCH [4]: 20.6 pg
MCHC [4]: 33.2%
MCV [4]: 62.1 fL
Mono [4]: 1.6%
Neu [4]: 12.4%
PT [4]: 16.8 s
Plat [4]: 124 x10_4/uL
RBC [4]: 625.6 x10_4/ul
Ret [4]: 6.8%
WBC [4]: 67.2 x10_2/uL
KIDNEY_L [4]: 0.9 g
KIDNEY_R [4]: 0.9 g
KIDNEY_TOTAL [4]: 1.8 g
LIVER [4]: 9.3 g
A/G [4]: 1.2
ALP [4]: 1883 IU/L
ALT [4]: 46.4 IU/L
AST [4]: 74.8 IU/L
BUN [4]: 15.4 mg/dL
CRE [4]: 0.2 mg/dL
Ca [4]: 10.9 mg/dL
Cl [4]: 106 meq/L
DBIL [4]: 0.004 mg/dL
GLC [4]: 179.8 mg/dL
IP [4]: 7.3 mg/dL
K [4]: 4.4 meq/L
LDH [4]: 254.8 IU/L
Na [4]: 142.4 meq/L
PL [4]: 143.2 mg/dL
RALB [4]: 3 g/dL
TBIL [4]: 0.008 mg/dL
TC [4]: 73.4 mg/dL
TG [4]: 124.6 mg/dL
TP [4]: 5.5 g/dL
gamma-GTP [4]: 1.2 IU/L
TERMINAL_BW [5]: 184.9 g
APTT [5]: 21.5 s
Bas [5]: 0%
Eos [5]: 0.8%
Fbg [5]: 290.4 mg/dL
Hb [5]: 13.2 g/dL
Ht [5]: 40.2%
Lym [5]: 74%
MCH [5]: 20.6 pg
MCHC [5]: 32.9%
MCV [5]: 62.8 fL
Mono [5]: 2%
Neu [5]: 22.2%
PT [5]: 16.3 s
Plat [5]: 121.5 x10_4/uL
RBC [5]: 640.8 x10_4/ul
Ret [5]: 7.2%
WBC [5]: 60.8 x10_2/uL
KIDNEY_L [5]: 0.8 g
KIDNEY_R [5]: 0.9 g
KIDNEY_TOTAL [5]: 1.7 g
LIVER [5]: 8 g
A/G [5]: 1.2
ALP [5]: 1601.8 IU/L
ALT [5]: 54.6 IU/L
AST [5]: 82.2 IU/L
BUN [5]: 10.8 mg/dL
CRE [5]: 0.1 mg/dL
Ca [5]: 10.3 mg/dL
Cl [5]: 106.6 meq/L
DBIL [5]: 0.002 mg/dL
GLC [5]: 185 mg/dL
IP [5]: 8.3 mg/dL
K [5]: 4.3 meq/L
LDH [5]: 258.8 IU/L
Na [5]: 142.4 meq/L
PL [5]: 121.4 mg/dL
RALB [5]: 2.9 g/dL
TBIL [5]: 0.012 mg/dL
TC [5]: 69.8 mg/dL
TG [5]: 36 mg/dL
TP [5]: 5.4 g/dL
gamma-GTP [5]: 1 IU/L
TERMINAL_BW [6]: 183.8 g
APTT [6]: 21.3 s
Bas [6]: 0%
Eos [6]: 0.4%
Fbg [6]: 282.2 mg/dL
Hb [6]: 13.1 g/dL
Ht [6]: 39.5%
Lym [6]: 76%
MCH [6]: 21.6 pg
MCHC [6]: 33.3%
MCV [6]: 64.8 fL
Mono [6]: 2.4%
Neu [6]: 20.6%
PT [6]: 16.6 s
Plat [6]: 120.5 x10_4/uL
RBC [6]: 610 x10_4/ul
Ret [6]: 8.4%
WBC [6]: 73.4 x10_2/uL
KIDNEY_L [6]: 0.8 g
KIDNEY_R [6]: 0.8 g
KIDNEY_TOTAL [6]: 1.7 g
LIVER [6]: 7.5 g
A/G [6]: 1.1
ALP [6]: 1538 IU/L
ALT [6]: 51.2 IU/L
AST [6]: 90.2 IU/L
BUN [6]: 14.6 mg/dL
CRE [6]: 0.2 mg/dL
Ca [6]: 10.5 mg/dL
Cl [6]: 107.4 meq/L
DBIL [6]: 0.004 mg/dL
GLC [6]: 170.2 mg/dL
IP [6]: 9.4 mg/dL
K [6]: 4.5 meq/L
LDH [6]: 259.2 IU/L
Na [6]: 141.8 meq/L
PL [6]: 110 mg/dL
RALB [6]: 2.8 g/dL
TBIL [6]: 0.02 mg/dL
TC [6]: 64.8 mg/dL
TG [6]: 33.4 mg/dL
TP [6]: 5.2 g/dL
gamma-GTP [6]: 1 IU/L
TERMINAL_BW [7]: 183.7 g
APTT [7]: 21.3 s
Bas [7]: 0%
Eos [7]: 0.8%
Fbg [7]: 284.6 mg/dL
Hb [7]: 13.2 g/dL
Ht [7]: 39.6%
Lym [7]: 72.2%
MCH [7]: 21.1 pg
MCHC [7]: 33.3%
MCV [7]: 63.5 fL
Mono [7]: 3.6%
Neu [7]: 22.6%
PT [7]: 16.2 s
Plat [7]: 122.3 x10_4/uL
RBC [7]: 624.2 x10_4/ul
Ret [7]: 7.6%
WBC [7]: 71.6 x10_2/uL
KIDNEY_L [7]: 0.8 g
KIDNEY_R [7]: 0.9 g
KIDNEY_TOTAL [7]: 1.7 g
LIVER [7]: 7.8 g
A/G [7]: 1.2
ALP [7]: 1538 IU/L
ALT [7]: 60.2 IU/L
AST [7]: 100.6 IU/L
BUN [7]: 11 mg/dL
CRE [7]: 0.1 mg/dL
Ca [7]: 10.1 mg/dL
Cl [7]: 107.6 meq/L
DBIL [7]: 0 mg/dL
GLC [7]: 172.8 mg/dL
IP [7]: 9.7 mg/dL
K [7]: 4.2 meq/L
LDH [7]: 233.6 IU/L
Na [7]: 141.8 meq/L
PL [7]: 117 mg/dL
RALB [7]: 2.9 g/dL
TBIL [7]: 0.022 mg/dL
TC [7]: 68 mg/dL
TG [7]: 35 mg/dL
TP [7]: 5.3 g/dL
gamma-GTP [7]: 1.2 IU/L
TERMINAL_BW [8]: 193.3 g
APTT [8]: 20.8 s
Bas [8]: 0%
Eos [8]: 0.8%
Fbg [8]: 275.2 mg/dL
Hb [8]: 13 g/dL
Ht [8]: 39.4%
Lym [8]: 73.2%
MCH [8]: 20.7 pg
MCHC [8]: 32.9%
MCV [8]: 62.9 fL
Mono [8]: 2.8%
Neu [8]: 22.2%
PT [8]: 17.3 s
Plat [8]: 114.4 x10_4/uL
RBC [8]: 627 x10_4/ul
Ret [8]: 7%
WBC [8]: 61.6 x10_2/uL
KIDNEY_L [8]: 0.8 g
KIDNEY_R [8]: 0.9 g
KIDNEY_TOTAL [8]: 1.7 g
LIVER [8]: 9.1 g
A/G [8]: 1.3
ALP [8]: 1813.6 IU/L
ALT [8]: 68.4 IU/L
AST [8]: 109.6 IU/L
BUN [8]: 16 mg/dL
CRE [8]: 0.2 mg/dL
Ca [8]: 10.7 mg/dL
Cl [8]: 106.6 meq/L
DBIL [8]: 0.004 mg/dL
GLC [8]: 172 mg/dL
IP [8]: 7.8 mg/dL
K [8]: 4.4 meq/L
LDH [8]: 260.2 IU/L
Na [8]: 143.2 meq/L
PL [8]: 136 mg/dL
RALB [8]: 2.9 g/dL
TBIL [8]: 0.01 mg/dL
TC [8]: 70.8 mg/dL
TG [8]: 65.2 mg/dL
TP [8]: 5.2 g/dL
gamma-GTP [8]: 1 IU/L
